According to PubChem BioAssay AID743403 (Broad Institute, 2014):
Values joined by “and” are separate entries in the source; they are usually repeats but may differ in a detail not shown here. Equal entries are not always repeated. Active and inactive are the calls of the source. The rule behind the calls is not given here.

What was measured:
[1] = test system: Cryptococcus neoformans cell lysis, plate reader; test: fungal cell lysis by compounds – dry powder, set 2, dose response (AID 743403)
[2] = as above; settings: Cryptococcus neoformans cell lysis, plate reader; at 35 µM (top of the series)

SMILES: Cc1ccc(OCCn2cnc3cc(C)c(C)cc32)cc1
- AC50 [1]: 15.9 µM

SMILES: Cc1ccc(C(C)C)c(OCCn2c(N)nc3ccccc32)c1
- activity change, negative = active [2]: 69.2% (inactive)

SMILES: c1ccc(-c2ccc(OCCn3cnc4ccccc43)cc2)cc1
- activity change, negative = active [2]: -12.5% (inactive)

SMILES: Cc1ccc(C(C)C)c(OCCn2c(=O)[nH]c3ccccc32)c1
- activity change, negative = active [2]: -16.7% (inactive)

SMILES: CC(C)c1ccccc1NCCn1c(=S)[nH]c2ccccc21
- activity change, negative = active [2]: 0.673% (inactive)

SMILES: FC(F)(F)c1cccc(OCCn2cnc3ccccc32)c1
- AC50 [1]: > 70 µM (inactive)

SMILES: Fc1cccc2c1[nH]c(=S)n2CCOc1ccccc1
- AC50 [1]: 26.2 µM

SMILES: NCC(=O)Nc1ccc(-n2nc(C(F)(F)F)cc2-c2ccc3c(ccc4ccccc43)c2)cc1
- AC50 [1]: 10.9 µM

SMILES: Clc1ccc(OCCn2cnc3ccccc32)c(Cl)c1
- AC50 [1]: 7.76 µM

SMILES: Fc1ccc2c(c1)[nH]c(=S)n2CCOc1ccccc1
- AC50 [1]: 23.2 µM and 28.7 µM

SMILES: COc1ccccc1OCCn1c(=S)[nH]c2ccccc21
- activity change, negative = active [2]: 3.55% (inactive)

SMILES: CSc1nc2ccccc2n1CCOc1cc(C)ccc1C(C)C
- activity change, negative = active [2]: -4.35% (inactive)

SMILES: Cc1cc2ncn(CCOc3ccc4c(c3)CCC4)c2cc1C
- AC50 [1]: 5.59 µM

SMILES: Cc1ccc(C(C)C)c(OCCn2c(=S)[nH]c3ccccc32)c1
- AC50 [1]: 4.95 µM

SMILES: CC(C)(C)c1ccc(OCCn2cnc3ccccc32)c(Cl)c1
- AC50 [1]: 20.8 µM

SMILES: CC(C)c1ccccc1OCCn1c(=S)[nH]c2ccccc21
- AC50 [1]: 11.9 µM

SMILES: O=S(=O)(c1ccc(OCCn2cnc3ccccc32)cc1)N1CCOCC1
- activity change, negative = active [2]: -21.8% (inactive)

SMILES: CC(C)Oc1ccc(OCCn2c(=S)[nH]c3ccccc32)cc1
- AC50 [1]: 29.7 µM

SMILES: CC(C)Oc1cccc(OCCn2cnc3ccccc32)c1
- AC50 [1]: 29 µM

SMILES: Clc1ccc(OCCn2cnc3ccccc32)cc1
- AC50 [1]: 32.5 µM

SMILES: Cc1cccc(OCCn2c(=S)[nH]c3cc(F)ccc32)c1
- AC50 [1]: 14.8 µM and 15.5 µM

SMILES: COc1ccc(OCCn2cnc3ccccc32)cc1
- activity change, negative = active [2]: -22.1% (inactive)

SMILES: Cc1ccc(C(C)C)c(OCCn2c(NC#N)nc3ccccc32)c1
- activity change, negative = active [2]: -9.31% (inactive)

SMILES: Cc1cccc(OCCn2c(=S)[nH]c3c(F)cccc32)c1
- activity change, negative = active [2]: 1.05% (inactive)

SMILES: c1ccc2c(c1)ncn2CCOc1ccc2c(c1)CCC2
- AC50 [1]: 3.76 µM

SMILES: CCCCc1nc2ccccc2n1CCOc1ccccc1
- activity change, negative = active [2]: 0.005% (inactive)

SMILES: Cc1ccc(C(C)C)c(OCCn2c(CO)nc3ccccc32)c1
- activity change, negative = active [2]: -20.4% (inactive)

SMILES: Cc1cc2ncn(CCOc3ccccc3)c2cc1C
- AC50 [1]: 25 µM

SMILES: S=c1[nH]c2cccc(Cl)c2n1CCOc1ccccc1
- AC50 [1]: 8.43 µM

SMILES: COc1ccccc1OCCn1c(SC)nc2ccccc21
- AC50 [1]: > 70 µM (inactive)

SMILES: CS(=O)(=O)c1ccc(OCCn2cnc3ccccc32)cc1
- activity change, negative = active [2]: -15.6% (inactive)

SMILES: Cc1ccc(OCCn2cnc3ccccc32)c(C)c1
- AC50 [1]: 7.4 µM

SMILES: OCc1nc2ccccc2n1CCOc1ccccc1
- activity change, negative = active [2]: -9.32% (inactive)

SMILES: CSc1nc2ccccc2n1CCOc1ccc(C)cc1
- AC50 [1]: > 70 µM (inactive)

SMILES: CC(C)(C)c1ccc(OCCn2cnc3ccccc32)cc1
- AC50 [1]: 30.5 µM

SMILES: CCCc1nc2ccccc2n1CCOc1ccccc1
- activity change, negative = active [2]: 0.352% (inactive)

SMILES: Cc1cc2ncn(CCOc3ccccc3C)c2cc1C
- AC50 [1]: 19.8 µM

SMILES: COCc1nc2ccccc2n1CCOc1ccc(C(C)(C)C)cc1
- activity change, negative = active [2]: 5.6% (inactive)

SMILES: CCSc1nc2ccccc2n1CCOc1ccccc1
- activity change, negative = active [2]: -22.6% (inactive)

SMILES: Cc1cccc(OCCn2c(=S)[nH]c3ccccc32)c1
- AC50 [1]: 19.5 µM

SMILES: CCc1nc2ccccc2n1CCOc1ccccc1
- activity change, negative = active [2]: 5.25% (inactive)

SMILES: Clc1ccccc1OCCn1cnc2ccccc21
- AC50 [1]: 36.3 µM

SMILES: Fc1ccc(OCCn2c(=S)[nH]c3ccccc32)cc1
- activity change, negative = active [2]: -33.3% (inactive)

SMILES: Cc1ccc2c(c1)[nH]c(=S)n2CCOc1ccccc1
- AC50 [1]: 17.4 µM

SMILES: S=c1[nH]c2cc(Cl)ccc2n1CCOc1ccccc1
- activity change, negative = active [2]: 27% (inactive)

SMILES: Cc1cccc(OCCn2c(=S)[nH]c3ccc(C(F)(F)F)cc32)c1
- activity change, negative = active [2]: 4.5% (inactive)
